Measurements taken from the SangsterLogP compilation.

test: not given

logP | Compound
2.44 | O=C(Nc1ncc([N+](=O)[O-])s1)c1c(F)cccc1F
3 | O=C(Nc1ncc([N+](=O)[O-])s1)c1c(F)cccc1Cl
3.57 | O=C(Nc1ncc([N+](=O)[O-])s1)c1cc(Cl)ccc1Cl
3.12 | O=C(Nc1ncc([N+](=O)[O-])s1)c1ccc(F)cc1
2.71 | O=C(Nc1ncc([N+](=O)[O-])s1)c1ccccc1F

Compound | logP
CC(=O)Oc1ccccc1C(=O)Nc1ncc([N+](=O)[O-])s1 | 2.41

test: method code SF-AS, from DOI: 10.1002/(sici)1521-3838(199801)17:01<01::aid-qsar1>3.0.co;2-a

logP | Compound
3.62 | O=C(Nc1ncc([N+](=O)[O-])s1)c1ccc(Cl)cc1Cl
4.14 | O=C(Nc1ncc([N+](=O)[O-])s1)c1ccc(Cl)c(Cl)c1
3.58 | O=C(Nc1ncc([N+](=O)[O-])s1)c1ccc(Br)cc1
3.8 | O=C(Nc1ncc([N+](=O)[O-])s1)c1cccc(Br)c1
3.09 | O=C(Nc1ncc([N+](=O)[O-])s1)c1ccccc1Br
3.61 | O=C(Nc1ncc([N+](=O)[O-])s1)c1cccc(Cl)c1
3.75 | O=C(Nc1ncc([N+](=O)[O-])s1)c1cc(Br)ccc1Br
4.14 | O=C(Nc1ncc([N+](=O)[O-])s1)c1cc(Cl)cc(Cl)c1
2.97 | O=C(Nc1ncc([N+](=O)[O-])s1)c1ccccc1
